Earlier results in patent publication US10136666B2, “Deep eutectic solvents and flavour generation” (NESTEC S.A., priority 2013, dated 2018).

Settings: from literature values

amount that would dissolve in 60 g water: about 33 g
SMILES: NCCC(=O)O [β-alanine]
